pKd: −log10 of the molar value.
Each molecule was assayed against WDR5 (Homo sapiens (Human), UniProt P61964) (assay: Surface Plasmon Resonance (SPR) assay, KD and residence time). Details: SPR, Table 2; read-out: WDR5 binding affinity (KD).
Format: binding

SMILES | pKd
CC(=O)Nc1cc(C(F)(F)F)c(C(=O)Nc2cc(-c3cnc(N4CCOCC4)nc3)c(F)cc2N2C[C@@H](C)N(C)[C@@H](C)C2)cn1 [Example 27, 6-acetamido-N-[4-fluoro-5-(2-morpholin-4-ylpyrimidin-5-yl)-2-[(3R,5S)-3,4,5-trimethylpiperazin-1-yl]phenyl]-4-(trifluoromethyl)pyridine-3-carboxamide] | 6.53

Same assay, conditions: surface plasmon resonance (SPR) assay; read-out: WDR5 binding affinity (KD)

SMILES | pKd
CC(=O)Nc1cc(C(F)(F)F)c(C(=O)Nc2cc(-c3cnc(N4CCOCC4)nc3)c(F)cc2N2C[C@@H](C)N(C)[C@@H](C)C2)cn1 [Example 27, 6-acetamido-N-[4-fluoro-5-(2-morpholin-4-ylpyrimidin-5-yl)-2-[(3R,5S)-3,4,5-trimethylpiperazin-1-yl]phenyl]-4-(trifluoromethyl)pyridine-3-carboxamide] | 6.53

Same assay, conditions: surface plasmon resonance (SPR); read-out: WDR5 binding affinity (KD)

SMILES | pKd
CC1CN(c2cc(F)c(-c3cccc(N4CCOCC4)n3)cc2NC(=O)c2cn(C)c(=O)cc2C(F)F)CCN1C (stereo in doubt) [Example 672, 4-(difluoromethyl)-N-[4-fluoro-5-(6-morpholin-4-ylpyridin-2-yl)-2-[(3R)-3,4-dimethylpiperazin-1-yl]phenyl]-1-methyl-6-oxopyridine-3-carboxamide] | 8.30
CC1CN(c2cc(F)c(-c3cccc(N4CCOCC4)n3)cc2NC(=O)c2ccc(F)cc2C(F)(F)F)CCN1C (stereo in doubt) [Example 673, 4-fluoro-N-[4-fluoro-5-(6-morpholin-4-ylpyridin-2-yl)-2-[(3R)-3,4-dimethylpiperazin-1-yl]phenyl]-2-(trifluoromethyl)benzamide] | 8.50
CC1CN(c2cc(F)c(C3=CCN(c4ncc(C#N)s4)CC3)cc2NC(=O)c2c[nH]c(=O)cc2C(F)F)CCN1C (stereo in doubt) [Example 686, N-[5-[1-(5-cyano-1,3-thiazol-2-yl)-3,6-dihydro-2H-pyridin-4-yl]-4-fluoro-2-[(3R)-3,4-dimethylpiperazin-1-yl]phenyl]-4-(difluoromethyl)-6-oxo-1H-pyridine-3-carboxamide] | 8.70
CC1CN(c2cc(F)c(C3=CCCN(c4ncc(C#N)s4)C3)cc2NC(=O)c2c[nH]c(=O)cc2C(F)F)CCN1C (stereo in doubt) [Example 688, N-[5-[1-(5-cyano-1,3-thiazol-2-yl)-3,6-dihydro-2H-pyridin-5-yl]-4-fluoro-2-[(3R)-3,4-dimethylpiperazin-1-yl]phenyl]-4-(difluoromethyl)-6-oxo-1H-pyridine-3-carboxamide] | 8.60
CC1CN(c2cc(F)c(C3=CCCN(c4ncc(C#N)s4)C3)cc2NC(=O)c2ccc(F)cc2C(F)(F)F)CCN1C (stereo in doubt) [Example 689, N-[5-[1-(5-cyano-1,3-thiazol-2-yl)-3,6-dihydro-2H-pyridin-5-yl]-4-fluoro-2-[(3R)-3,4-dimethylpiperazin-1-yl]phenyl]-4-fluoro-2-(trifluoromethyl)benzamide] | 8.20
CC1CN(c2cc(F)c(C3=CCN(C(=O)OC4CC(F)(F)C4)CC3)cc2NC(=O)c2c[nH]c(=O)cc2C(F)F)CCN1C (stereo in doubt) [Example 703, (3,3-difluorocyclobutyl) 4-[5-[[4-(difluoromethyl)-6-oxo-1H-pyridine-3-carbonyl]amino]-2-fluoro-4-[(3R)-3,4-dimethylpiperazin-1-yl]phenyl]-3,6-dihydro-2H-pyridine-1-carboxylate] | 8.99
CC1CN(c2cc(F)c(C3=CCCN(C(=O)OC4CC(F)(F)C4)C3)cc2NC(=O)c2c[nH]c(=O)cc2C(F)F)CCN1C (stereo in doubt) [Example 705, (3,3-difluorocyclobutyl) 5-[5-[[4-(difluoromethyl)-6-oxo-1H-pyridine-3-carbonyl]amino]-2-fluoro-4-[(3R)-3,4-dimethylpiperazin-1-yl]phenyl]-3,6-dihydro-2H-pyridine-1-carboxylate] | 8.69
CC1CN(c2cc(F)c(C3=CCCN(C(=O)OC4CC(F)(F)C4)C3)cc2NC(=O)c2ccc(F)cc2C(F)(F)F)CCN1C (stereo in doubt) [Example 706, (3,3-difluorocyclobutyl) 5-[2-fluoro-5-[[4-fluoro-2-(trifluoromethyl)benzoyl]amino]-4-[(3R)-3,4-dimethylpiperazin-1-yl]phenyl]-3,6-dihydro-2H-pyridine-1-carboxylate] | 8.42
CC1CN(c2cc(F)c(C3=CCN(C(=O)OC4CC(F)(F)C4)CC3)cc2NC(=O)c2ccc(F)cc2C(F)(F)F)CCN1C (stereo in doubt) [Example 707, (3,3-difluorocyclobutyl) 4-[2-fluoro-5-[[4-fluoro-2-(trifluoromethyl)benzoyl]amino]-4-[(3R)-3,4-dimethylpiperazin-1-yl]phenyl]-3,6-dihydro-2H-pyridine-1-carboxylate] | 8.67
CC1CN(c2cc(F)c(C3=CCN(c4ccnc(C#N)n4)CC3)cc2NC(=O)c2c[nH]c(=O)cc2C(F)F)CCN1C (stereo in doubt) [Example 708, N-[5-[1-(2-cyanopyrimidin-4-yl)-3,6-dihydro-2H-pyridin-4-yl]-4-fluoro-2-[(3R)-3,4-dimethylpiperazin-1-yl]phenyl]-4-(difluoromethyl)-6-oxo-1H-pyridine-3-carboxamide] | 9.24
CC1CN(c2cc(F)c(-c3cnn(CCN4CCOCC4)c3)cc2NC(=O)c2c[nH]c(=O)cc2C(F)(F)F)CCN1C (stereo in doubt) [Example 714, N-[4-fluoro-5-[1-(2-morpholin-4-ylethyl)pyrazol-4-yl]-2-[(3R)-3,4-dimethylpiperazin-1-yl]phenyl]-6-oxo-4-(trifluoromethyl)-1H-pyridine-3-carboxamide] | 8.56
CC1CN(c2cc(F)c(-c3cnn(CCN4CCOCC4)c3)cc2NC(=O)c2cn(C)c(=O)cc2C(F)F)CCN1C (stereo in doubt) [Example 715, 4-(difluoromethyl)-N-[4-fluoro-5-[1-(2-morpholin-4-ylethyl)pyrazol-4-yl]-2-[(3R)-3,4-dimethylpiperazin-1-yl]phenyl]-1-methyl-6-oxopyridine-3-carboxamide] | 7.96
CC1CN(c2cc(F)c(-c3ccnc(N4CCOCC4)n3)cc2NC(=O)c2c[nH]c(=O)cc2C(F)(F)F)CCN1C (stereo in doubt) [Example 718, N-[4-fluoro-5-(2-morpholin-4-ylpyrimidin-4-yl)-2-[(3R)-3,4-dimethylpiperazin-1-yl]phenyl]-6-oxo-4-(trifluoromethyl)-1H-pyridine-3-carboxamide] | 8.96
CC1CN(c2cc(F)c(-c3cccc(N4CCOCC4)n3)cc2NC(=O)c2c[nH]c(=O)cc2C(F)(F)F)CCN1C (stereo in doubt) [Example 719, N-[4-fluoro-5-(6-morpholin-4-ylpyridin-2-yl)-2-[(3R)-3,4-dimethylpiperazin-1-yl]phenyl]-6-oxo-4-(trifluoromethyl)-1H-pyridine-3-carboxamide] | 8.93
CC1CN(c2cc(F)c(-c3ccnc(N4CCOCC4)n3)cc2NC(=O)c2c[nH]c(=O)cc2C(F)F)CCN1C (stereo in doubt) [Example 720, 4-(difluoromethyl)-N-[4-fluoro-5-(2-morpholin-4-ylpyrimidin-4-yl)-2-[(3R)-3,4-dimethylpiperazin-1-yl]phenyl]-6-oxo-1H-pyridine-3-carboxamide] | 8.88
CC1CN(c2cc(F)c(-c3cccc(N4CCOCC4)n3)cc2NC(=O)c2c[nH]c(=O)cc2C(F)F)CCN1C (stereo in doubt) [Example 721, 4-(difluoromethyl)-N-[4-fluoro-5-(6-morpholin-4-ylpyridin-2-yl)-2-[(3R)-3,4-dimethylpiperazin-1-yl]phenyl]-6-oxo-1H-pyridine-3-carboxamide] | 8.79
CC(C)OC(=O)N1CC=C(c2cc(NC(=O)c3c[nH]c(=O)cc3C(F)F)c(N3CCN(C)C(C)C3)cc2F)CC1 (stereo in doubt) [Example 724, propan-2-yl 4-[5-[[4-(difluoromethyl)-6-oxo-1H-pyridine-3-carbonyl]amino]-2-fluoro-4-[(3R)-3,4-dimethylpiperazin-1-yl]phenyl]-3,6-dihydro-2H-pyridine-1-carboxylate] | 8.55
CC(C)OC(=O)N1CCC=C(c2cc(NC(=O)c3c[nH]c(=O)cc3C(F)F)c(N3CCN(C)C(C)C3)cc2F)C1 (stereo in doubt) [Example 726, propan-2-yl 5-[5-[[4-(difluoromethyl)-6-oxo-1H-pyridine-3-carbonyl]amino]-2-fluoro-4-[(3R)-3,4-dimethylpiperazin-1-yl]phenyl]-3,6-dihydro-2H-pyridine-1-carboxylate] | 8.68
CC(C)OC(=O)N1CC=C(c2cc(NC(=O)c3ccc(F)cc3C(F)(F)F)c(N3CCN(C)C(C)C3)cc2F)CC1 (stereo in doubt) [Example 727, propan-2-yl 4-[2-fluoro-5-[[4-fluoro-2-(trifluoromethyl)benzoyl]amino]-4-[(3R)-3,4-dimethylpiperazin-1-yl]phenyl]-3,6-dihydro-2H-pyridine-1-carboxylate] | 8.61
CC(C)OC(=O)N1CCC=C(c2cc(NC(=O)c3ccc(F)cc3C(F)(F)F)c(N3CCN(C)C(C)C3)cc2F)C1 (stereo in doubt) [Example 728, propan-2-yl 5-[2-fluoro-5-[[4-fluoro-2-(trifluoromethyl)benzoyl]amino]-4-[(3R)-3,4-dimethylpiperazin-1-yl]phenyl]-3,6-dihydro-2H-pyridine-1-carboxylate] | 8.45
C[C@@H]1CN(c2cc(F)c(-c3cnc(N4CCOC[C@H]4C)nc3)cc2NC(=O)c2ccc(F)cc2C(F)(F)F)CCN1C (stereo in doubt) [Example 736, 4-fluoro-N-[4-fluoro-2-[(3R)-3,4-dimethylpiperazin-1-yl]-5-[2-[(3R)-3-methylmorpholin-4-yl]pyrimidin-5-yl]phenyl]-2-(trifluoromethyl)benzamide] | 9.54
CC1CN(c2cc(F)c(-c3ccnc(N4C[C@@H](C)O[C@@H](C)C4)n3)cc2NC(=O)c2ccc(F)cc2C(F)(F)F)CCN1C (stereo in doubt) [Example 739, 4-fluoro-N-[4-fluoro-5-[2-[(2R,6S)-2,6-dimethylmorpholin-4-yl]pyrimidin-4-yl]-2-[(3R)-3,4-dimethylpiperazin-1-yl]phenyl]-2-(trifluoromethyl)benzamide] | 8.52
CC1CN(c2cc(F)c(-c3cccc(N4CCNCC4)n3)cc2NC(=O)c2c[nH]c(=O)cc2C(F)(F)F)CCN1C (stereo in doubt) [Example 742, N-[4-fluoro-5-(6-piperazin-1-ylpyridin-2-yl)-2-[(3R)-3,4-dimethylpiperazin-1-yl]phenyl]-6-oxo-4-(trifluoromethyl)-1H-pyridine-3-carboxamide] | 8.54
